Source: patent publication US20080021002A1, “VITAMIN D COMPOUNDS USED TO STABILIZE KIDNEY TRANSPLANTS” (priority 2000, published 2008)

How the values were obtained:
Type in all cases: in vivo, rat
[1] = tested on: Fisher to Lewis renal allograft; assay: Fisher to Lewis renal allograft model of chronic allograft nephropathy (graft survival, serum creatinine, urinary protein, histology)
Protocol: Animals: Donor and recipients rats (greater than 250 gm) were obtained from Harlan Sprague Dawley, Indianapois, Ind. Recipient animals were placed on experimental diet containing 0.47% Ca 7 days prior to transplantation. Hullett et al., Transplantation 66:824-828, 1998. Recipients were divided into groups which received experimental diet alone or experimental diet containing 1,25-(OH)2D3 (250, 500, or 1000 ng/rat/day) or cyclosporine 1.5 or 5 mg/kg/day i.p. for 10 days. Animals were maintained on diet until the time or rejection or graft harvest at 24 weeks. All care and use of laboratory animals followed the NIH (NIH publication No. 86-23) guidelines. 1,25-(OH)2D3 was prepared, dissolved in ethanol and placed in the experimental diet as previously described.1,25-(OH)2D3 was the generous gift or Dr. Hector DeLuca, Department of Biochemistry, University of Wisconsin. Cyclosporine (Sandimmune i.v.; 1.5 or 5 mg/kg/day for 10 days,) was diluted in saline and given i.p. Transplantation: The Fisher to Lewis model of chronic allograft nephropathy has been previously described. Diamond et al., Transplantation 54:710-716, 1992. Briefly, donor kidneys obtained from male Fisher 344 rats were flushed with 10 ml cold University of Wisconsin preservation solution and stored at 4° C. while the recipient was prepared. […] Lewis male recipients were transplanted with either a Fisher 344 or Lewis kidney following left native nephrectomy. Briefly, the donor renal artery, vein and ureter were anastomosed to the recipient renal artery, vein and ureter. The right native kidney was removed 10 days post-transplant. Graft function was monitored by serum creatinine and urinary protein determinations. Urinary Protein: Proteinuria was assessed weekly. Animals were placed in metabolic cages for 6 hours and urine collected. Protein excretion was determined using a dye binding assay (quanTest red, Quantimetrix Corp., Redondo Beach, Calif.) according to manufacturer=s instructions with minor modifications. Briefly, 20 μl of the urine sample was diluted with 1×PBS in a two-fold series dilution in 96-well flat-bottom microtiter plates (Corning, N.Y.). […] Data was analyzed with Softmax Pro-software (Molecular Devices Corp.; Sunnyvale, Calif.). Graft survival was compared using the log rank test. Differences in mRNA and protein expression were compared by t-test.

TGFβ-1 mRNA = assay: Semi-quantitative RT-PCR of renal grafts, TGFβ-1 mRNA; settings: treated recipients vs untreated allogeneic control grafts
Protocol: (§1) Semi-quantitative Reverse transcription polymerace chain reaction (RT-PCR): Following graft harvest a […] containing both cortex and medulla was snap frozen in liquid nitrogen. Semi-quantitative RT-PCR was performed as described. Little et al. Transplant Int. 12:393-401, 1999. Briefly, samples were homogenized then total RNA extracted with RNAzol B (Tel Test, Inc., Friendswood, Tex.) and reversed transcribed to cDNA according to manufacturer=s instructions (Superscript, Gibco BRL). PCR was performed over the linear range of amplification for both the gene of interest, e.g. TGFβ-1, and the ribosomal protein S26 as a control housekeeping gene. PCR conditions were chosen such that both products were amplified with similar efficiency. The following cycle parameters were employed: denaturing, 94° C. for 60 seconds; annealing, 61° C. for 60 seconds; and extension, 72° C. for 60 seconds. The amount of product was quantified using a phosphoimager (Storm 80) following gel electrophoresis and Vista green detection.

Smad 7 mRNA = assay: Semi-quantitative RT-PCR of renal grafts, Smad 7 mRNA; settings: vs controls
Protocol: as §1

MMP 2 mRNA = assay: Semi-quantitative RT-PCR of renal grafts, MMP 2 mRNA
Protocol: FIG. 5 is a set of graphs showing that 1,25-(OH)2D3 Treatment Alters MMP and TIMP Expression . […] S26 was used as the housekeeping gene. […] Fold changes are expressed relative to the allogeneic untreated control.
as §1

[2] = allograft, 500 ng/rat/day, FIG. 2B

C=C1/C(=C\C=C2/CCC[C@]3(C)[C@@H]([C@H](C)CCCC(C)(C)O)CC[C@@H]23)C[C@@H](O)C[C@@H]1O [calcitriol, 1,25-dihydroxyvitamin D3]
Graft survival ([1]; 250 ng/day in diet, p=0.04): prolonged graft survival was not as readily demonstrated | Graft survival ([1]; 500 ng/rat/day in diet, vs allogeneic untreated controls, p=0.0009): significant prolongation of graft survival was sustained | Urinary protein ([1]; 500 ng/rat/day monotherapy (data not shown), vs untreated allogeneic controls or CSA 1.5 mg/kg/d): significantly lowered | Calcium deposits in graft ([1]; 1000 ng): Significant calcium deposits | Graft survival ([1]; 1000 ng/rat/day in diet, monotherapy, vs allogeneic untreated controls, p=0.0031): significantly prolonged | Urinary protein ([1]; 1000 ng/rat/day monotherapy, p=0.004, vs untreated allogeneic controls or CSA 1.5 mg/kg/d (10 days)): significantly lowered | Calcium deposition, histological examination ([1]; 250 and 500 ng/day groups): reduced calcium deposition | Cellular infiltration, histological examination (Banff) ([1]; 250 and 500 ng/day groups): mild to moderate cellular infiltration (Banff IA or IIA) | Serum calcium levels ([1]; 250 and 500 ng/day groups (data not shown)): remained elevated | Rise in serum creatinine at 2 weeks post-transplant ([1]; 500 or 250 ng/day): Neither the 500 or the 250 ng/day dose of 1,25-(OH)2D3 prevented the rise | Prolonged graft survival compared with low dose CSA (5 mg/kg/day for 10 days) ([1]; 1000 or 500 ng/rat/day): not statistically different | Early acute rejection episode (within 2 weeks post-transplant) ([1]; CSA: short-term low dose monotherapy, 1,25-(OH)2D3 in diet): diminished | Cellular infiltration (H&E) [1, 2]: significantly decreased | Interstitial fibrosis (H&E) [1, 2]: little or no interstitial fibrosis | Histological features of CAN (interstitial fibrosis, glomerulosclerosis, neointimal hyperplasia) ([1]; allografts, H&E, FIG. 2B): inhibited the development of these pathological features | Serum creatinine at 2 weeks post-transplant ([1]; p=0.035 versus untreated allogeneic control (FIG. 1B)): only a slight increase | Collagen deposition (trichrome stain) ([1]; treated allograft recipients, FIG. 2D-E): decreased collagen deposition | TGFβ-1 mRNA levels (TGFβ-1 mRNA): no significant difference | Smad 7 mRNA levels (Smad 7 mRNA): no significant change | Increase in MMP 2 mRNA levels (MMP 2 mRNA; allogeneic grafts (FIG. 5A)): 5.6 fold | Increase in MMP 2 mRNA levels (MMP 2 mRNA; syngeneic grafts (FIG. 5A)): 4.0 fold
